Laboratory results taken from PMC6588697, “Lugdunin amplifies innate immune responses in the skin in synergy with host- and microbiota-derived factors” (Nature Communications, 2019).
Where “and” joins values, the source holds several entries; their conditions need not be identical. Equal values may be shown once.

Legend:
mouse skin = assay: Cytokines in mouse skin culture supernatant after epicutaneous treatment; format: in vivo, C57BL/6 WT, MyD88-ko, 5xTLR-ko mice; conditions: 1.5 µg lugdunin epicutaneous 24 h; for MIP-2 concentration in skin culture supernatant: Fig 2e; for IL-1α concentration in skin culture supernatant: Fig 2d
Procedure: Fig. 2 Induction of chemokine (C-X-C motif) ligand 8/macrophage inflammatory protein-2 (CXCL8/MIP-2) by lugdunin is TLR2/MyD88-dependent. a HEK-control or HEK-TLR2 cells were treated with 2 μM lugdunin for 5 h and subsequently the CXCL8 concentration in the supernatant was analyzed by LEGENDplex^TM (BioLegend). Shown is one representative experiment of three independent experiments with two technical replicates ± s.e.m. b HEK-control or HEK-TLR2 cells were treated with increasing concentrations of lugdunin for 5 h and subsequently expression of CXCL8 was analyzed and normalized to actin. Shown is one representative experiment of three independent experiments with two technical replicates ± s.e.m. c Schematic overview of the mouse experiments: 6–8-week-old female C5BL/6 WT, MyD88-knockout (ko), or 5xTLR-ko mice were epicutaneously treated with 1.5 µg lugdunin or phosphate-buffered saline (PBS) as a control. After 24 h, mice were euthanized, 4 mm skin punches were taken, and further cultured in vitro for 10 h followed by cytokine analysis of the culture supernatant by LEGENDplex^TM (BioLegend). d, e Shown are the mean concentrations of IL-1α (d) or MIP-2 (e) in the skin culture supernatant of two skin punches from four mice each ± s.e.m. Significant differences to control treatments were analyzed by an unpaired two-tailed t test (*P < 0.05; **P < 0.01; ***P < 0.001). f Representative MIP-2-stained paraffin-embedded mouse skin sections. Scale bar, 100 µM. Source data are provided as a Source Data file
For cytokine analysis from cell cultures, 10 µL of supernatant was used for cytokine analysis via the LEGENDplex^TM human inflammation panel (BioLegend). For cytokine analysis from mouse skin, 4 mm skin punches were cultured in an airlift system where only the dermis had access to medium for 10 h. Skin punches were cultured in RPMI containing 1% FCS (Biochrom/Merck Millipore), 1% penicillin and streptomycin (Gibco/Life Technologies) and 0.25 µg/mL amphotericin B (CELLnTEC). Ten microliters of a 3-fold dilution of culture supernatant was used for cytokine analysis via the LEGENDplex^TM mouse inflammation panel (BioLegend). Samples were acquired in duplicates using a BD LSRII flow cytometer (BD Biosciences) and LEGENDplex^TM Software (BioLegend).
For IL-1α analysis, 100 µL of cell culture supernatant was analyzed via ELISA (R&D Systems) according to manufacturer’s instruction. For MIP-2 analysis, 100 µL of a 5-fold dilution from skin cultures supernatant was used and analyzed via ELISA (R&D Systems) according to the manufacturer’s instruction. For LL-37 ELISA, ELISA plates (Nunc) were coated overnight at 4 °C with 100 µL of cell culture supernatant or 2-fold dilutions of LL-37 starting from 8 µg/mL. The next day, the plate was washed three times using PBS + 0.5% BSA + 0.05% Triton X-100, followed by incubation with 100 µL primary antibody against hCAP18/LL-37 (HycultBiotech, Cat#HM2071, 1:120 in PBS + 0.5% BSA + 0.05% Triton X-100) at 37 °C for 1 h. After washing, incubation with 100 µL secondary antibody (Cell Signaling, Cat#7076S, 1:3000 in PBS + 0.5% BSA + 0.05% Triton X-100) followed at 37 °C for 1 h. Subsequently, plates were washed and 100 µL TMB substrate solution (Cell Signaling) was added. Reaction was stopped with 50 µL 2 N H2SO4 and absorbance at 450 nm was measured using a Fluoroskan II (Labsystems).
To analyze the immune cell composition and cytokines in the skin, 15 µL containing 1.5 μg lugdunin or PBS as a control were epicutaneously applied for 24 h on the shaved back skin of C57BL/6 WT/MYD88-ko/5xTLR-ko mice. After 24 h, mice were euthanized and relevant skin areas or 4 mm skin punches were removed for immune cell analysis and LEGENDplex^TM (BioLegend) cytokine analysis. […]
55 c: Shown are the mean concentrations of the indicated cytokines in the supernatant of
56 the organ skin culture of two skin punches from four mice each +/- s.e.m. […]
61 Source data are provided as a Source Data file.

HTEpCs = assay: Cytokine release into HTEpC supernatant (LEGENDplex / ELISA); format: cell-based, human; conditions: 5 h, lugdunin 2 µM or Pam2Cys 100 ng/mL, two technical replicates, Fig 1f
[1] = 5xTLR-ko mice, punches cultured 10 h, single punches
[2] = MyD88-ko mice, punches cultured 10 h, single punches

## Lugdunin
Mouse skin; [1]
  MIP-2 concentration in skin culture supernatant: reduced
  IL-1α concentration in skin culture supernatant: still able to induce
Mouse skin; [2]
  MIP-2 concentration in skin culture supernatant: completely impaired
  IL-1α concentration in skin culture supernatant: still able to induce
Mouse skin; WT mice, punches cultured 10 h, single punches
  MIP-2 concentration in skin culture supernatant: induced
Mouse skin; WT mice, skin punches cultured 10 h, single punches (rows)
  IL-1α concentration in skin culture supernatant: induced
HTEpCs
  CXCL8 concentration in supernatant: 214.845 and 210.300
